Like-named read-outs stand apart in the source and are kept apart here.
Experiments:
[1] = system: HCV genotype 1a (H77 strain) replicon in HUH-7 cells; experiment: HCV replicon luciferase reporter assay, genotype 1a; format: cell-based; conditions: 3 days incubation
How it was run: (§1)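 Replicon inhibition for both genotypes was measured as Renilla luciferase signal (EnduRen, 7.5 μM final, 2 h) after 3-day, 37° C exposure of replicon-bearing HUH-7 cells in 4% FCS DMEM, 0.5% DMSO. The 1b construct carries S1179I; the 1a H77 construct carries P1496L and S2204I. Twenty-point, 3-fold dilutions were fitted four-parametrically for EC50, and CC50 was taken from multiplexed Cell Titer-Blue.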

[2] = system: HCV genotype 1b (Con1) replicon in HUH-7 cells; experiment: HCV replicon luciferase reporter assay, genotype 1b; format: cell-based; conditions: 3 days incubation
How it was run: as §1

[3] = Hepatitis C virus, Huh-7, 72 h, HCV genotype 1a replicon luciferase assay, range class, read-out: LE_1a (EC50, range)
[4] = Hepatitis C virus, Huh-7, 72 h, HCV genotype 1b replicon luciferase assay, range class, read-out: LE_1b (EC50, range)
[5] = Hepatitis C virus, Huh-7, 72 h, HCV genotype 1a replicon luciferase, read-out: LE_1a (EC50, range)
[6] = Hepatitis C virus, Huh-7, 72 h, HCV genotype 1b replicon luciferase, read-out: LE_1b (EC50, range)
[7] = Hepatitis C virus, GETYPE1A, Huh-7, 72 h, HCV genotype 1a replicon luciferase, read-out: LE_1a (EC50, range)
[8] = Hepatitis C virus, GETYPE1B, Huh-7, 72 h, HCV genotype 1b replicon luciferase, read-out: LE_1b (EC50, range)

COc1cnc(O[C@@H]2C[C@H]3C(=O)N[C@]4(C(=O)NS(=O)(=O)C5(C)CC5)C[C@H]4/C=C\CC[C@@H](C)C[C@@H](C)[C@H](NC(=O)OC(C)(C)C)C(=O)N3C2)c2ccc(N(C)C)cc12 [Compound 3136, tert-butyl ((2R,6S,7R,9R,13aS,14aR,16aS,Z)-2-((6-(dimethylamino)-4-methoxyisoquinolin-1-yl)oxy)-7,9-dimethyl-14a-(((1-methylcyclopropyl)sulfonyl)carbamoyl)-5,16-dioxo-1,2,3,5,6,7,8,9,10,11,13a,14,14a,15,16,16a-hexadecahydrocyclopropa[e]pyrrolo[1,2-a][1,4]diazacyclopentadecin-6-yl)carbamate]
EC50 [1, 3]: < 5.46 nM | EC50 [2, 4]: < 5.46 nM

CCOc1nnc(O[C@@H]2C[C@H]3C(=O)N[C@]4(C(=O)NS(=O)(=O)C5(C)CC5)C[C@H]4/C=C\CC[C@@H](C)C[C@@H](CC)[C@H](NC(=O)OC(C)(C)C(C)(F)F)C(=O)N3C2)c2ccccc12 [Compound 5051, 3,3-difluoro-2-methylbutan-2-yl((2R,6S,7R,9R,13aS,14aR,16aS,Z)-2-((4-ethoxyphthalazin-1-yl)oxy)-7-ethyl-9-methyl-14a-(((1-methylcyclopropyl)sulfonyl)carbamoyl)-5,16-dioxo-1,2,3,5,6,7,8,9,10,11,13a,14,14a,15,16,16a-hexadecahydrocyclopropa[e]pyrrolo[1,2-a][1,4]diazacyclopentadecin-6-yl)carbamate]
EC50 [1, 5]: < 5.46 nM | EC50 [2, 6]: < 5.46 nM

C[C@@H]1CC/C=C\[C@@H]2C[C@@]2(C(=O)NS(=O)(=O)C2(CF)CC2)NC(=O)[C@@H]2C[C@@H](Oc3nc4c(c5ccccc35)CCCO4)CN2C(=O)[C@@H](NC(=O)OC(C)(C)C(F)F)[C@H](C)C1 [Compound 6074, 1,1-difluoro-2-methylpropan-2-yl((2R,6S,7R,9R,13aS,14aR,16aS,Z)-2-((2,3-dihydro-1H-pyrano[2,3-c]isoquinolin-6-yl)oxy)-14a-(((1-(fluoromethyl)cyclopropyl)sulfonyl)carbamoyl)-7,9-dimethyl-5,16-dioxo-1,2,3,5,6,7,8,9,10,11,13a,14,14a,15,16,16a-hexadecahydrocyclopropa[e]pyrrolo[1,2-a][1,4]diazacyclopentadecin-6-yl)carbamate]
EC50 [1, 5]: 0.51 to 1 nM | EC50 [2, 6]: 1.01 to 5 nM

CC[C@@H]1C[C@H](C)CC/C=C\[C@@H]2C[C@@]2(C(=O)NS(=O)(=O)C2(C)CC2)NC(=O)[C@@H]2C[C@@H](Oc3ncc(N4CCOCC4)c4cc(OC)ccc34)CN2C(=O)[C@H]1NC(=O)OC(C)(C)C(F)(F)F [Compound 4206]
EC50 [1, 7]: < 5.46 nM | EC50 [2, 8]: < 5.46 nM

CC[C@@H]1C[C@H](C)CC/C=C\[C@@H]2C[C@@]2(C(=O)NS(=O)(=O)C2(CF)CC2)NC(=O)[C@@H]2C[C@@H](Oc3nccc4cc(OC)ccc34)CN2C(=O)[C@H]1NC(=O)OC(C)(C)C(F)(F)F [Compound 4205]
EC50 [1, 7]: < 5.46 nM | EC50 [2, 8]: < 5.46 nM

CCOc1ccc2c(O[C@@H]3C[C@H]4C(=O)N[C@]5(C(=O)NS(=O)(=O)C6CC6)C[C@H]5/C=C\CC[C@H](C)C[C@@H](C)[C@H](NC(=O)OC(C)(C)C)C(=O)N4C3)nccc2c1 [Compound 5127, tert-butyl ((2R,6S,7R,9S,13aS,14aR,16aS,Z)-14a-((cyclopropylsulfonyl)carbamoyl)-2-((6-ethoxyisoquinoline-1-yl)oxy)-7,9-dimethyl-5,16-dioxo-1,2,3,5,6,7,8,9,10,11,13a,14,14a,15,16,16a-hexadecahydrocyclopropa[e]pyrrolo[1,2-a][1,4]diazacyclopentadecin-6-yl)carbamate]
EC50 [1, 5]: < 5.46 nM | EC50 [2, 6]: < 5.46 nM

COc1cc2ccnc(O[C@@H]3C[C@H]4C(=O)N[C@]5(C(=O)NS(=O)(=O)C6(CF)CC6)C[C@H]5/C=C\CC[C@@H](C)C[C@@H](C)[C@H](NC(=O)OC(C)(C)C(F)(F)F)C(=O)N4C3)c2cc1OC [Compound 5383, 1,1,1-trifluoro-2-methylpropan-2-yl((2R,6S,7R,9R,13aS,14aR,16aS,Z)-2-((6,7-dimethoxyisoquinolin-1-yl)oxy)-14a-(((1-(fluoromethyl)cyclopropyl)sulfonyl)carbamoyl)-7,9-dimethyl-5,16-dioxo-1,2,3,5,6,7,8,9,10,11,13a,14,14a,15,16,16a-hexadecahydrocyclopropa[e]pyrrolo[1,2-a][1,4]diazacyclopentadecin-6-yl)carbamate]
EC50 ([1]; HCV genotype 1a replicon luciferase, read-out: LE_1a (EC50, range)): 5.01 to 35 nM | EC50 ([2]; HCV genotype 1b replicon luciferase, read-out: LE_1b (EC50, range)): 1.01 to 5 nM

COc1ccc2c(O[C@@H]3C[C@H]4C(=O)N[C@]5(C(=O)NS(=O)(=O)C6CC6)C[C@H]5/C=C\CC[C@H](C)C[C@@H](C)[C@H](NC(=O)OC(C)(C)C(F)(F)F)C(=O)N4C3)nccc2c1F [Compound 3149, 1,1,1-trifluoro-2-methylpropan-2-yl((2R,6S,7R,9S,13aS,14aR,16aS,Z)-14a-((cyclopropylsulfonyl)carbamoyl)-2-((5-fluoro-6-methoxyisoquinolin-1-yl)oxy)-7,9-dimethyl-5,16-dioxo-1,2,3,5,6,7,8,9,10,11,13a,14,14a,15,16,16a-hexadecahydrocyclopropa[e]pyrrolo[1,2-a][1,4]diazacyclopentadecin-6-yl)carbamate]
EC50 [1, 3]: 4.82 to 103 nM | EC50 [2, 4]: < 5.46 nM

CC[C@@H]1C[C@H](C)CC/C=C\[C@@H]2C[C@@]2(C(=O)NS(=O)(=O)C2CC2)NC(=O)[C@@H]2C[C@@H](Oc3nccc4c5c(ccc34)N(C)CCO5)CN2C(=O)[C@H]1NC(=O)O[C@@H]1C[C@@H]2C[C@@H]2C1 [Compound 5314, (1R,3r,5S)-bicyclo[3.1.0]hexan-3-yl((2R,6S,7R,9R,13aS,14aR,16aS,Z)-14a-((cyclopropylsulfonyl)carbamoyl)-7-ethyl-9-methyl-2-((4-methyl-3,4-dihydro-2H-[1,4]oxazino[2,3-f]isoquinolin-7-yl)oxy)-5,16-dioxo-1,2,3,5,6,7,8,9,10,11,13a,14,14a,15,16,16a-hexadecahydrocyclopropa[e]pyrrolo[1,2-a][1,4]diazacyclopentadecin-6-yl)carbamate]
EC50 ([1]; Hepatitis C virus, Huh-7, 72 h, HCV genotype 1a replicon luciferase, read-out: LE_1a (EC50)): 1.59 nM | EC50 [1, 5]: < 5.46 nM | EC50 ([2]; Hepatitis C virus, Huh-7, 72 h, HCV genotype 1b replicon luciferase, read-out: LE_1b (EC50)): 1.06 nM | EC50 [2, 6]: < 5.46 nM

COc1cnc(O[C@@H]2C[C@H]3C(=O)N[C@]4(C(=O)NS(=O)(=O)C5(CF)CC5)C[C@H]4/C=C\CC[C@H](C)C[C@@H](C)[C@H](NC(=O)OC4(C)CCOC4)C(=O)N3C2)c2ccccc12 (stereo partly drawn) [Compound 1063, 3-methyltetrahydrofuran-3-yl ((2R,6S,7R,9S,13aS,14aR,16aS,Z)-14a-(((1-(fluoromethyl)cyclopropyl)sulfonyl)carbamoyl)-2-((4-methoxyisoquinolin-1-yl)oxy)-7,9-dimethyl-5,16-dioxo-1,2,3,5,6,7,8,9,10,11,13a,14,14a,15,16,16a-hexadecahydrocyclopropa[e]pyrrolo[1,2-a][1,4]diazacyclopentadecin-6-yl)carbamate]
EC50 [1, 3]: 4.82 to 103 nM | EC50 [2, 4]: < 5.46 nM

COc1ccc2c(O[C@@H]3C[C@H]4C(=O)N[C@]5(C(=O)NS(=O)(=O)C6(C)CC6)C[C@H]5/C=C\CC[C@H](C)C[C@@H](C)[C@H](NC(=O)O[C@@H]5C[C@@H]6C[C@@H]6C5)C(=O)N4C3)nc(-c3ccc(F)cc3)cc2c1 [Compound 3086, (1R,3r,5S)-bicyclo[3.1.0]hexan-3-yl((2R,6S,7R,9S,13aS,14aR,16aS,Z)-2-((3-(4-fluorophenyl)-6-methoxyisoquinolin-1-yl)oxy)-7,9-dimethyl-14a-(((1-methylcyclopropyl)sulfonyl)carbamoyl)-5,16-dioxo-1,2,3,5,6,7,8,9,10,11,13a,14,14a,15,16,16a-hexadecahydrocyclopropa[e]pyrrolo[1,2-a][1,4]diazacyclopentadecin-6-yl)carbamate]
EC50 [1, 3]: < 5.46 nM | EC50 [2, 4]: < 5.46 nM

CC[C@@H]1C[C@H](C)CC/C=C\[C@@H]2C[C@@]2(C(=O)NS(=O)(=O)C2(CF)CC2)NC(=O)[C@@H]2C[C@@H](Oc3ncc(N4CCOCC4)c4ccccc34)CN2C(=O)[C@H]1NC(=O)OC(C)(C)C(F)(F)F [Compound 5445, 1,1,1-trifluoro-2-methylpropan-2-yl((2R,6S,7R,9R,13aS,14aR,16aS,Z)-7-ethyl-14a-(((1-(fluoromethyl)cyclopropyl)sulfonyl)carbamoyl)-9-methyl-2-((4-morpholinoisoquinolin-1-yl)oxy)-5,16-dioxo-1,2,3,5,6,7,8,9,10,11,13a,14,14a,15,16,16a-hexadecahydrocyclopropa[e]pyrrolo[1,2-a][1,4]diazacyclopentadecin-6-yl)carbamate]
EC50 [1, 5]: 1.01 to 5 nM | EC50 [2, 6]: 1.01 to 5 nM

COc1cnc(O[C@@H]2C[C@H]3C(=O)N[C@]4(C(=O)NS(=O)(=O)C5(CO)CC5)C[C@H]4/C=C\CC[C@H](C)C[C@@H](C)[C@H](N)C(=O)N3C2)c2ccccc12 [Compound 4113, (2R,6S,7R,9S,13aS,14aR,16aS,Z)-6-amino-N-(1-(hydroxymethyl)cyclopropylsulfonyl)-2-(4-methoxyisoquinolin-1-yloxy)-7,9-dimethyl-5,16-dioxo-1,2,3,5,6,7,8,9,10,11,13a,14,14a,15,16,16a-hexadecahydrocyclopropa[e]pyrrolo[1,2-a][1,4]diazacyclopentadecine-14a-carboxamide]
EC50 [1, 5]: > 87.4 nM | EC50 [2, 6]: > 87.4 nM
